Measured values from patent US10259808B2 (Genentech, Inc., priority 2015, dated 2019).
Read-outs that look alike come from different tables or passages of the source.

Target: T1, RORc ligand binding domain (Homo sapiens, UniProt P51449)
T1 sequence (P51449 269-508 limits assumed): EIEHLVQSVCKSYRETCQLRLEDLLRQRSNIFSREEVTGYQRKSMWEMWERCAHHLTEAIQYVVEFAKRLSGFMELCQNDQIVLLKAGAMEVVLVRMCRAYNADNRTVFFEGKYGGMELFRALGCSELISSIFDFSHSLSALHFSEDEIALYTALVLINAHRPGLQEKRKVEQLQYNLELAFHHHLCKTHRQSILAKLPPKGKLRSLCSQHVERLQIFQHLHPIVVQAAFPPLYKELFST
Assay: In vitro RORc ligand binding assay (25-[3H]hydroxycholesterol displacement)

IC50	Compound	IC50 (IC50 values for RORc)
109 nM	CC(=O)OCc1nc(C2(c3ccc(CN4[C@@H](C)CC[C@H](c5ccccc5)S4(=O)=O)c(F)c3)CCOCC2)no1 [Example 27, [3-[4-[3-fluoro-4-[[(3S,6R)-3-methyl-1,1-dioxo-6-phenyl-thiazinan-2-yl]methyl]phenyl]tetrahydropyran-4-yl]-1,2,4-oxadiazol-5-yl]methyl acetate]	
57 nM	C[C@H]1CC[C@H](c2ccccc2)S(=O)(=O)N1Cc1cc(F)c(C2(c3ncn(CCO)n3)CCOCC2)cc1F [Example 54, 2-[3-[4-[2,5-difluoro-4-[[(3S,6R)-3-methyl-1,1-dioxo-6-phenyl-thiazinan-2-yl]methyl]phenyl]tetrahydropyran-4-yl]-1,2,4-triazol-1-yl]ethanol]	
7.2 nM	C[C@H]1CC[C@H](c2ccccc2)S(=O)(=O)N1Cc1ccc(C2(OCc3nnc[nH]3)CCOCC2)cc1F [Example 56, (3S,6R)-2-[[2-fluoro-4-[4-(4H-1,2,4-triazol-3-ylmethoxy)tetrahydropyran-4-yl]phenyl]methyl]-3-methyl-6-phenyl-thiazinane 1,1-dioxide]	
9.3 nM	C[C@H]1CC[C@H](c2ccccc2)S(=O)(=O)N1Cc1ccc(C2(NCc3ncccn3)CCOCC2)cc1F [Example 67, 4-[3-fluoro-4-[[(3S,6R)-3-methyl-1,1-dioxo-6-phenyl-thiazinan-2-yl]methyl]phenyl]-N-(pyrimidin-2-ylmethyl)tetrahydropyran-4-amine]	
171 nM	C[C@H]1CC[C@H](c2ccccc2)S(=O)(=O)N1Cc1ccc(C2(C(=O)NC3CCOCC3)CCOCC2)cc1F	
87.2 nM	C[C@H]1CC[C@H](c2ccccc2)S(=O)(=O)N1Cc1ccc(C2(NCc3ccc[nH]c3=O)CCOCC2)cc1F [Example 77, 3-[[[4-[3-fluoro-4-[[(3S,6R)-3-methyl-1,1-dioxo-6-phenyl-thiazinan-2-yl]methyl]phenyl]tetrahydropyran-4-yl]amino]methyl]-1H-pyridin-2-one]	
5.2 nM	C[C@H]1CC[C@H](c2ccccc2)S(=O)(=O)N1Cc1cc(F)c([C@]2(c3cc(=O)n(C)o3)C[C@](C)(O)C2)cc1F [Example 161, 5-[1-[2,5-difluoro-4-[[(3S,6R)-3-methyl-1,1-dioxo-6-phenyl-thiazinan-2-yl]methyl]phenyl]-3-hydroxy-3-methyl-cyclobutyl]-2-methyl-isoxazol-3-one]	
208 nM	C[C@H]1CC[C@H](c2ccccc2)S(=O)(=O)N1Cc1cc(F)c(C2(NC(=O)c3cnn(C)c3)COC2)cc1F (stereo in doubt) [Example 131, N-[3-[2,5-difluoro-4-[[(3S,6R)-3-methyl-1,1-dioxo-6-phenyl-thiazinan-2-yl]methyl]phenyl]oxetan-3-yl]-1-methyl-pyrazole-4-carboxamide]	
151 nM	C[C@H]1CC[C@@H](c2ccccc2)S(=O)(=O)N1Cc1cc(F)c(C2(c3n[nH]c(=O)o3)CCC2)cc1F [Example 143, 5-[1-[2,5-difluoro-4-[[(3S,6S)-3-methyl-1,1-dioxo-6-phenyl-thiazinan-2-yl]methyl]phenyl]cyclobutyl]-3H-1,3,4-oxadiazol-2-one]	
11.3 nM	CO[C@H]1C[C@](c2n[nH]c(=O)o2)(c2cc(F)c(CN3[C@@H](C)CC[C@H](c4ccccc4)S3(=O)=O)cc2F)C1 [Example 155, cis 5-[1-[2,5-difluoro-4-[[(3S,6R)-3-methyl-1,1-dioxo-6-phenyl-thiazinan-2-yl]methyl]phenyl]-3-methoxy-cyclobutyl]-3H-1,3,4-oxadiazol-2-one]	
9.2 nM	C[C@H]1CC[C@H](c2ccccc2)S(=O)(=O)N1Cc1cc(F)c([C@]2(c3n[nH]c(=O)o3)C[C@](O)(C3CC3)C2)cc1F [Example 141, cis 5-[3-cyclopropyl-1-[2,5-difluoro-4-[[(3S,6R)-3-methyl-1,1-dioxo-6-phenyl-thiazinan-2-yl]methyl]phenyl]-3-hydroxy-cyclobutyl]-3H-1,3,4-oxadiazol-2-one]	
6.4 nM	COC[C@]1(O)C[C@@](c2n[nH]c(=O)o2)(c2cc(F)c(CN3[C@@H](C)CC[C@H](c4ccccc4)S3(=O)=O)cc2F)C1 (racemic) [Example 169, 5-[1-[2,5-difluoro-4-[[rac-(3S,6R)-3-methyl-1,1-dioxo-6-phenyl-thiazinan-2-yl]methyl]phenyl]-3-hydroxy-3-(methoxymethyl)cyclobutyl]-3H-1,3,4-oxadiazol-2-one]	
6.1 nM	C=C[C@]1(O)C[C@@](c2c[nH]c(=O)o2)(c2cc(F)c(CN3[C@@H](C)CC[C@H](c4ccccc4)S3(=O)=O)cc2F)C1 [Example 164, 5-[1-[2,5-difluoro-4-[[(3S,6R)-3-methyl-1,1-dioxo-6-phenyl-thiazinan-2-yl]methyl]phenyl]-3-hydroxy-3-vinyl-cyclobutyl]-3H-oxazol-2-one]	
	cis 5-[1-[2,5-difluoro-4-[[(3S,6R)-3- methyl-1,1-dioxo-6-phenyl-thiazinan-2- yl]methyl]phenyl]-3-hydroxy-3- (trifluoromethyl)cyclobutyl]-3H-1,3,4- oxadiazol-2-one [Example 148]	11 nM
7 nM	C[C@H]1CC[C@H](c2ccccc2)S(=O)(=O)N1Cc1cc(F)c([C@]2(c3nnc[nH]3)C[C@](C)(O)C2)cc1F [Example 145, trans 3-[2,5-difluoro-4-[[(3S,6R)-3-methyl-1,1-dioxo-6-phenyl-thiazinan-2-yl]methyl]phenyl]-1-methyl-3-(4H-1,2,4-triazol-3-yl)cyclobutanol]	
6.6 nM	C[C@H]1CC[C@H](c2ccccc2)S(=O)(=O)N1Cc1ccc(C2(NCc3cnccn3)CCOCC2)cc1F [Example 66, 4-[3-fluoro-4-[[(3S,6R)-3-methyl-1,1-dioxo-6-phenyl-thiazinan-2-yl]methyl]phenyl]-N-(pyrazin-2-ylmethyl)tetrahydropyran-4-amine]	
3.4 nM	C[C@H]1CC[C@H](c2ccccc2)S(=O)(=O)N1Cc1cc(F)c([C@]2(c3n[nH]c(=O)o3)C[C@](C)(O)C2)cc1F [Example 128, trans-5-[1-[2,5-difluoro-4-[[(3S,6R)-3-methyl-1,1-dioxo-6-phenyl-thiazinan-2-yl]methyl]phenyl]-3-hydroxy-3-methyl-cyclobutyl]-3H-1,3,4-oxadiazol-2-one]	
40.4 nM	Cc1nnc(C2(c3cc(F)c(CN4[C@@H](C)CC[C@H](c5ccccc5)S4(=O)=O)cc3F)CC2)[nH]1 [Example 49, (3S,6R)-2-[[2,5-difluoro-4-[1-(5-methyl-4H-1,2,4-triazol-3-yl)cyclopropyl]phenyl]methyl]-3-methyl-6-phenyl-thiazinane 1,1-dioxide]	
1.3 nM	Cc1cc(COC2(c3cc(F)c(CN4[C@@H](C)CC[C@H](c5ccccc5)S4(=O)=O)cc3F)COC2)no1 [Example 110, (3S,6R)-2-[[2,5-difluoro-4-[3-[(5-methylisoxazol-3-yl)methoxy]oxetan-3-yl]phenyl]methyl]-3-methyl-6-phenyl-thiazinane 1,1-dioxide]	
10.6 nM	C[C@H]1CC[C@H](c2ccccc2)S(=O)(=O)N1Cc1ccc(C2(NCc3cc[nH]c(=O)c3)CCOCC2)cc1F [Example 72, 4-[[[4-[3-fluoro-4-[[(3S,6R)-3-methyl-1,1-dioxo-6-phenyl-thiazinan-2-yl]methyl]phenyl]tetrahydropyran-4-yl]amino]methyl]-1H-pyridin-2-one]	
6.2 nM	C[C@H]1CC[C@H](c2ccccc2)S(=O)(=O)N1Cc1cc(F)c(C2(c3c[nH]c(=O)o3)CC(O)(CC3CC3)C2)cc1F (mixture of isomers) [Example 184, 5-[3-(cyclopropylmethyl)-1-[2,5-difluoro-4-[[rac-(3S,6R)-3-methyl-1,1-dioxo-6-phenyl-thiazinan-2-yl]methyllphenyl]-3-hydroxy-cyclobutyl]-3H-oxazol-2-one]	
2.6 nM	C[C@H]1CC[C@H](c2ccccc2)S(=O)(=O)N1Cc1cc(F)c(C2(NC(=O)Cc3ccon3)CCOCC2)cc1F [Example 104, N-[4-[2,5-difluoro-4-[[(3S,6R)-3-methyl-1,1-dioxo-6-phenyl-thiazinan-2-yl]methyl]phenyl]tetrahydropyran-4-yl]-2-isoxazol-3-yl-acetamide]	
110 nM	C[C@H]1CC[C@H](c2ccccc2)S(=O)(=O)N1Cc1ccc(C2(C(=O)NC3COC3)CCOCC2)cc1F [Example 1]	
170 nM	C[C@H]1CC[C@H](c2ccccc2)S(=O)(=O)N1Cc1cc(F)c([C@]2(Cn3ncccc3=O)C[C@](C)(O)C2)cc1F (racemic) [Example 183, 2-[[1-[2,5-difluoro-4-[[rac-(3S,6R)-3-methyl-1,1-dioxo-6-phenyl-thiazinan-2-yl]methyl]phenyl]-3-hydroxy-3-methyl-cyclobutyl]methyl]pyridazin-3-one]	
19.2 nM	Cc1cncc(C(=O)NC2(c3cc(F)c(CN4[C@@H](C)CC[C@H](c5ccccc5)S4(=O)=O)cc3F)CCOCC2)n1 [Example 108, N-[4-[2,5-difluoro-4-[[(3S,6R)-3-methyl-1,1-dioxo-6-phenyl-thiazinan-2-yl]methyl]phenyl]tetrahydropyran-4-yl]-6-methyl-pyrazine-2-carboxamide]	
34.1 nM	C[C@H]1CC[C@H](c2ccccc2)S(=O)(=O)N1Cc1cc(F)c(C2(NCc3cnco3)COC2)cc1F [Example 100, 3-[2,5-difluoro-4-[[(3S,6R)-3-methyl-1,1-dioxo-6-phenyl-thiazinan-2-yl]methyl]phenyl]-N-(oxazol-5-ylmethyl)oxetan-3-amine]	
15.5 nM	C[C@H]1CC[C@@H](c2ccccc2)S(=O)(=O)N1Cc1cc(F)c([C@]2(c3c[nH]c(=O)o3)C[C@@](O)(C3(C)CC3)C2)cc1F (racemic) [Example 166, 5-[1-[2,5-difluoro-4-[[rac-(3S,6S)-3-methyl-1,1-dioxo-6-phenyl-thiazinan-2-yl]methyl]phenyl]-3-hydroxy-3-(1-methylcyclopropyl)cyclobutyl]-3H-oxazol-2-one]	
